Experimental data as given in PMC9186412, “Rational Framework for the Design of Trp- and Arg-Rich Peptide Antibiotics Against Multidrug-Resistant Bacteria” (Frontiers in Microbiology, 2022).
≈ marks a conversion by molar mass, not a printed value. Where two headings read alike, the source gives them in different places. Blank lines part the entries; values can stand above or below the compound they belong to. Where no end group is shown, it is not given here.

Experiments:
[1] = tested on: K. pneumoniae; assay: microbe, parasite or virus in culture; assay type: cell-based, Klebsiella pneumoniae; conditions: 18 h
Protocol: (§1) Bacterial clinical isolates, used for initial screening and in previous studies ([Deslouches et al., 2013]; [Lin et al., 2018]), were anonymously provided by the clinical microbiology laboratory of the University of Pittsburgh medical Center. The panel used for secondary screening was from [CDC (2013)] (Supplementary Table 3), with resistance profiles data. Bacteria are stored in lock-secured –80°C freezer and typically retrieved by obtaining single colonies on agar plates prior for subsequent liquid broth cultures. Suspensions of test bacteria were prepared from log phase of growth by diluting overnight cultures at 1:100 with fresh cation-adjusted MHB (MHB2, Millipore Sigma, United States) and incubating for additional 3–4 h. Bacteria were spun at 3,000 × g for 10 min and the pellet resuspended in test condition media (Millipore Sigma, United States) to determine bacterial turbidity using a Den-1B densitometer (Grant Instruments, United States) at 0.5 McFarland (unit of bacterial density) corresponding to […].
(§2) To examine antibacterial activity, we used minor modifications of a standard growth inhibition assay endorsed by the Clinical and Laboratory Standards Institute (CLSI), as previously described ([Deslouches et al., 2013]). Bacteria were incubated with each of the indicated peptides in MHB2. The bacterial cells were kept in an incubator for 18 h at 37°C, which is linked to a robotic system that feeds a plate reader every hour with one of 8 × 96-well plates. This set-up allows the collection of growth kinetic data at A 570 (absorbance at 570 nm) to examine growth inhibition in real time (BioTek Instruments, United States). […] The assays are typically repeated a second time. If the MIC is different, a third experimental trial is performed to confirm the MIC. To assess bactericidal properties of the peptide, the assay was modified by using 15% fetal bovine serum (FBS, for a more physiologically relevant test condition) mixed with 25% MHB2 and 60% PBS. Bacterial cells (colony forming unit/mL or CFU/mL) were enumerated after incubating treated bacteria for 3 h and plating serially diluted samples on broth agar medium at 37°C overnight. Minimum bactericidal concentration (MBC) was determined as the peptide concentration at which complete bacterial killing was observed. […] Data were analyzed using GraphPad Prism software.

[2] = tested on: E. Faecium; assay: microbe, parasite or virus in culture; assay type: cell-based, Enterococcus Facium; conditions: Enterococcus faecium, 18 h, MHB2, 18 h, 37°C
Protocol: as §1, §2

[3] = tested on: S. aureus; assay: microbe, parasite or virus in culture; assay type: cell-based; conditions: Staphylococcus aureus, 18 h, MHB2, 18 h, 37°C
Protocol: as §1, §2

[4] = tested on: CDC AR isolates; parameters: key: S (green), susceptible; I (blue), intermediate; R (red), resistant; conditions: Staphylococcus aureus SA461, CDC AR isolate; data provided by the CDC; ref CDC; cited from earlier work
[5] = tested on: CDC AR isolates; parameters: key: S (green), susceptible; I (blue), intermediate; R (red), resistant; conditions: data provided by the CDC, ref CDC, cited from earlier work
Text: Supplement Table_3.XLSX, sheet "CDC AR isolates profiles" | column: G(-) strains

[6] = tested on: Enterobacter spp; assay: microbe, parasite or virus in culture; assay type: cell-based, Enterobacter spp (aerogenes, cloacae); conditions: Enterobacter, 18 h, UPMC, MHB2, 18 h, 37°C
Protocol: as §1, §2

[7] = tested on: P. aeruginosa; assay: microbe, parasite or virus in culture; assay type: cell-based, Pseudomonas aeruginosa; conditions: Pseudomonas aeruginosa, 18 h, MHB2, 18 h, 37°C
Protocol: as §1, §2

[8] = tested on: A. baumannii; assay: microbe, parasite or virus in culture; assay type: cell-based, Acinetobacter baumannii; conditions: Acinetobacter baumannii, 18 h, MHB2, 18 h, 37°C
Protocol: as §1, §2

[9] = tested on: E. coli; assay: microbe, parasite or virus in culture; assay type: cell-based, Escherichia coli; conditions: Escherichia coli, 18 h, MHB2, 18 h, 37°C
Protocol: as §1, §2

Compound: RRVVRRWRRVVRRWVRVWRRVVRR [E3]
% RBC lysis: 17% | MIC [1]: 8 µM

Compound: Cc1onc(-c2ccccc2)c1C(=O)N[C@@H]1C(=O)N2[C@@H]1SC(C)(C)[C@@H]2C(=O)O [Oxacillin, reference compound]
MIC ([2]; strain EF23614, UPMC): 0.25 µM (≈ 0.1 µg/mL) | MIC ([2]; strain EF24670, UPMC): > 16 µM | MIC ([2]; strain EF26215, UPMC): 2 µM (≈ 0.803 µg/mL) | MIC ([2]; strain EF26692, UPMC): 2 µM (≈ 0.803 µg/mL) | MIC ([3]; strain SA12212, UPMC): 8 µM (≈ 3.21 µg/mL) | MIC ([3]; strain SA18710, UPMC): 4 µM (≈ 1.61 µg/mL) | MIC ([3]; strain SA49775): 0.25 µM (≈ 0.1 µg/mL) | MIC ([3]; strain SA-US300): 4 µM (≈ 1.61 µg/mL) | Antibiotic susceptibility profile [4]: S | Antibiotic susceptibility profile ([5]; Staphylococcus aureus SA462, CDC AR isolate): S | Antibiotic susceptibility profile ([5]; Staphylococcus aureus SA463, CDC AR isolate): S | Antibiotic susceptibility profile ([5]; Staphylococcus aureus SA561, CDC AR isolate): R

MIC ([2]; strain EF23614, UPMC): 8 µM (≈ 4.37 µg/mL) | MIC ([2]; strain EF24670, UPMC): > 16 µM | MIC ([6]; strain EA518 (aerogenes)): > 16 µM | MIC ([6]; strain EA596 (aerogenes)): > 16 µM | MIC ([6]; strain EC470 (cloacae)): > 16 µM | MIC ([6]; strain EC560 (cloacae)): > 16 µM | MIC ([7]; strain PA97-5, UPMC): 1 µM (≈ 0.547 µg/mL) | MIC ([7]; strain PA129-5, UPMC): 2 µM (≈ 1.09 µg/mL) | MIC ([8]; strain AB-A2, UPMC clinical strain, A570, confirmed by 2nd or 3rd trial): 1 µM (≈ 0.547 µg/mL) | MIC ([8]; strain AB-A3, UPMC): > 16 µM | MIC ([8]; strain AB-F8, UPMC): > 16 µM | MIC ([8]; strain AB-F9, UPMC): 2 µM (≈ 1.09 µg/mL) | MIC ([9]; strain Eco25922): 1 µM (≈ 0.547 µg/mL) | MIC ([9]; strain YDC107, UPMC): 4 µM (≈ 2.19 µg/mL) | MIC ([9]; strain YDC337, UPMC): > 16 µM | MIC ([9]; strain YDC748, UPMC): > 16 µM | MIC ([1]; Klebsiella pneumoniae, strain KP43816, MHB2, 18 h, 37°C): 1 µM (≈ 0.547 µg/mL) | MIC ([1]; Klebsiella pneumoniae, strain KPA5 (colistin-resistant), UPMC, MHB2, 18 h, 37°C): 12 µM (≈ 6.56 µg/mL) | MIC ([1]; Klebsiella pneumoniae, strain KPB3, UPMC, MHB2, 18 h, 37°C): 8 µM (≈ 4.37 µg/mL) | MIC ([1]; Klebsiella pneumoniae, strain KPC3, UPMC, MHB2, 18 h, 37°C): > 16 µM
Compound: CC(C)(O/N=C(\C(=O)N[C@@H]1C(=O)N2C(C(=O)[O-])=C(C[n+]3ccccc3)CS[C@H]12)c1csc(N)n1)C(=O)O [Ceftazidime, reference compound]
Antibiotic susceptibility profile ([5]; Acinetobacter baumannii AB273, CDC AR isolate): R | Antibiotic susceptibility profile ([5]; Acinetobacter baumannii AB274, CDC AR isolate): R | Antibiotic susceptibility profile ([5]; Acinetobacter baumannii AB275, CDC AR isolate): R | Antibiotic susceptibility profile ([5]; Acinetobacter baumannii AB276, CDC AR isolate): R | Antibiotic susceptibility profile ([5]; Enterobacter cloacae E62, CDC AR isolate): S | Antibiotic susceptibility profile ([5]; Enterobacter cloacae E544, CDC AR isolate): S | Antibiotic susceptibility profile ([5]; Enterobacter cloacae E545, CDC AR isolate): S | Antibiotic susceptibility profile ([5]; Enterobacter cloacae E546, CDC AR isolate): S | Antibiotic susceptibility profile ([5]; Escherichia coli EC541, CDC AR isolate): S | Antibiotic susceptibility profile ([5]; Escherichia coli EC543, CDC AR isolate): S | Antibiotic susceptibility profile ([5]; Escherichia coli EC544, CDC AR isolate): S | Antibiotic susceptibility profile ([5]; Escherichia coli EC549, CDC AR isolate): S | Antibiotic susceptibility profile ([5]; Klebsiella pneumoniae KP542, CDC AR isolate): R | Antibiotic susceptibility profile ([5]; Klebsiella pneumoniae KP548, CDC AR isolate): R | Antibiotic susceptibility profile ([5]; Klebsiella pneumoniae KP550, CDC AR isolate): R | Antibiotic susceptibility profile ([5]; Klebsiella pneumoniae KP552, CDC AR isolate): S | Antibiotic susceptibility profile ([5]; Pseudomonas aeruginosa PA229, CDC AR isolate): R | Antibiotic susceptibility profile ([5]; Pseudomonas aeruginosa PA230, CDC AR isolate): R | Antibiotic susceptibility profile ([5]; Pseudomonas aeruginosa PA231, CDC AR isolate): R | Antibiotic susceptibility profile ([5]; Pseudomonas aeruginosa PA232, CDC AR isolate): S | Antibiotic susceptibility profile ([5]; Pseudomonas aeruginosa PA239, CDC AR isolate): R
